# Bridges are numbered along the chain shown (N, C = ends). Roman numbers before positions name the chains, in order. Where no end group is shown, it is not given here.
# Key:
# [1] = tested on: biotinylated hTNF-α; experiment: Phage ELISA of selected clones; assay type: binding, human; details: streptavidin-coated 96-well plates coated with 20 nM biotinylated hTNF-α; phage-displayed peptide
# Protocol: Random 12-mer peptide phage library Ph.D.™-12 (New England Biolabs, Ipswich, MA, USA) was incubated with biotinylated hTNF-α. 10^11 phage, diluted in PBS (137 mM NaCl, 2 mM KCl, 10 mM Na2HPO4, 2 mM KH2PO4, pH 7.4) containing 0.1% (v/v) Tween 20 (PBST) and 3% bovine albumin (BSA) and incubated with 50 nM biotinylated hTNF-α o/n at 4 °C, was added to 100 μL Dynabeads-M280 coupled with streptavidin (Invitrogen¸ Waltham, MA, USA), saturated with 5% BSA in PBST, for 15 min at room temperature. After washing 10 times with PBST, bound phages were eluted with 5 μM adalimumab for 60 min at room temperature. The amplified phages were titered and underwent two further rounds of biopanning as described above, except that the concentration of biotinylated hTNF-α was diminished (20 nM and 10 nM for the second and third rounds of panning, respectively) and washing was performed using 0.5% (v/v) Tween 20.
# In alternative to the selection described above we performed the following panning using SPR technology. Biotinylated hTNF-α was immobilized to the streptavidin (SA) sensor chip surface, obtaining final 2000 Resonance Units. […] For both pannings, the binding of selected clones to hTNF-α after the last round of panning was evaluated by phage ELISA in streptavidin-coated 96-well plates coated with 20 nM biotinylated hTNF-α.
# [2] = target: T1, human TNF-α (hTNF-α) (Homo sapiens, UniProt P01375); experiment: SPR binding of hTNF-α to immobilized biotinylated peptides (Biacore T100); details: hTNF-α 250 nM to 2 µM over immobilized peptide
# T1 construct: peaks around 17,300, 34,700 and 52,100 Da, corresponding to monomeric, homodimeric and homotrimeric forms of hTNF-α; purchased Prospec
# T1 sequence (P01375 77-233 limits assumed): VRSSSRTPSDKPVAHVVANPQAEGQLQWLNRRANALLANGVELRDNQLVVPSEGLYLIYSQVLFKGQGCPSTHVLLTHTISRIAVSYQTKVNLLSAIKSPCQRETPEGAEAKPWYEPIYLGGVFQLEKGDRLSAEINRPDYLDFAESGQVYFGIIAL
# Protocol: hTNF-α was injected over linear and tetra-branched peptides previously immobilized on a Biacore T100 SA sensor chip. hTNF-α was flowed at concentrations ranging from 250 nM to 2 µM. To assess any non-specific binding, hTNF-α was also injected over an empty flow cell.
# (§1) All the experiments were performed on a Biacore T100 instrument (GE Healthcare, Milan, Italy); materials were purchased from GE Healthcare unless otherwise specified. Adalimumab was a kind gift from Galeazzi, University of Siena. Biotinylated linear and tetra-branched TNF-peptides were immobilized on a SA sensor chip. Briefly, peptides diluted in HBS-EP+ were injected for 60 s at a flow rate of 10 µL/min, obtaining 300 and 700 RUs respectively. Different concentrations of hTNF-α, from 250 nM to 2 µM in HBS-EP+, were injected for 180 s at a flow rate of 75 µL/min onto immobilized peptides. Association and dissociation kinetic rate constants (kon and koff) and the equilibrium dissociation constant Kd were calculated using BIAevaluation 3.0 software. […] Adalimumab monoclonal antibody (1 µg/mL in HBS-EP+ for 45 s at a flow rate of 10 µL/min) was immobilized on a CM5 sensor chip previously coated with Protein A (6500 RUs). Competition experiments were carried out injecting 10 nM hTNF-α for 180 s at flow rate of 30 µL/min with various concentrations (1, 10 and 25 µM) of tetra-branched TNF-peptide. […]
# [3] = tested on: murine TNF-α; experiment: SPR specificity: binding of murine TNF-α to immobilized peptides; details: data not shown
# [4] = tested on: homotrimeric form of hTNF-α; experiment: MALDI-TOF MS analysis of hTNF-α oligomer dissociation; assay type: biochemical, human; details: 5 min at room temperature, linear mode
# Protocol: To determine whether the anti-TNF-α peptide destabilized the oligomeric form of hTNF-α, we evaluated the distribution of monomeric, dimeric and trimeric hTNF-α by MS in the presence of increasing concentrations of anti-TNF-α peptide.
# The anti-TNF-α peptide was incubated in a 3-fold or 10-fold molar excess with respect with hTNF-α at room temperature for 5 min. The dissociation of hTNF-α was analysed by mass spectrometry using a sinapinic acid matrix (Sigma-Aldrich) and a protein standard II (mass range ~10,000–70,000 Da, Brucker Daltonics) in an ultrafleXtreme MALDI-TOF/TOF mass spectrometer (Bruker Daltonics) in linear mode.
# [5] = target: T2, hTNF-α binding to adalimumab (Homo sapiens, UniProt P01375); experiment: SPR inhibition of hTNF-α binding to captured adalimumab; details: 25 µM peptide, 10 nM hTNF-α, adalimumab captured via Protein A on CM5 chip, read-out: inhibition of TNF-α binding to adalimumab
# T2 construct: peaks around 17,300, 34,700 and 52,100 Da, corresponding to monomeric, homodimeric and homotrimeric forms of hTNF-α; purchased Prospec
# T2 sequence (P01375 77-233 limits assumed): as above
# Protocol: The anti-hTNF-α monoclonal antibody adalimumab was captured on a protein-A-coated sensor chip. 10 nM hTNF-α was injected over the immobilized antibody in the presence of different concentrations (25, 10 and 1 µM) of the tetra-branched anti-TNF-α peptide (Figure 3A).
# as §1
substance,measurement,setting,value
HIHDDLLRYYGW,phage ELISA result for clones expressing the sequence (in words),[1],positive
"I: HIHDDLLRYYGWKK-NH2 / II: HIHDDLLRYYGWK / III: HIHDDLLRYYGW / IV: HIHDDLLRYYGW (amide I:13-IV:C, I:14-II:C, II:13-III:C; C-terminus assumed) [tetra-branched peptide]",hTNF-α binding (in words),[2],bound hTNF-α in a dose-dependent manner
same,binding for murine TNF-α (in words),[3],did not show any binding for murine TNF-α
"I: HIHDDLLRYYGWKK-NH2 / II: HIHDDLLRYYGWK / III: HIHDDLLRYYGW / IV: HIHDDLLRYYGW (amide I:13-IV:C, I:14-II:C, II:13-III:C) [tetra-branched anti-TNF-α peptide]",homo-dimeric hTNF-α peak in MS (in words),[4]; tenfold molar excess of peptide,the homo-dimeric form also disappeared
same,homo-trimeric hTNF-α peak in MS (in words),[4]; threefold molar excess of peptide,The peak corresponding to the homo-trimeric form disappeared
same,inhibition at 25 µM,[5],~80%

# From PMC6271742, “A Novel Phage-Library-Selected Peptide Inhibits Human TNF-α Binding to Its Receptors” (Molecules, 2014)
